Experimental data taken from US11891601B2, “Method to enhance the transcription regulation of SUPT4H on genes containing repetitive nucleotide sequences” (National Yang-Ming University, priority 2018, dated 2024).

Test system: genes with lengthy repetitive nucleotide sequences (Q81-GFP, mutant HTT)
Test: RT-qPCR of (CAG)n-GFP / HTT mRNA with SUPT4H siRNA knockdown plus tropolone
Assay type: cell-based
Conditions: together with SUPT4H siRNA; only in the genes with lengthy repetitive nucleotide sequences
Experimental: ST14A, Hdh^Q7/Q7 and Hdh^Q111/Q111 were maintained in DMEM (HyClone) supplemented with 15% fetal bovine serum at 33° C. with 5% CO2. ST14A^tet is a genetic engineered stable line, which integrated pTet-Off construct in the genome of ST14A cells and could trigger the expression of pTRE2-(CAG)n-eGFP plasmid in the absence of tetracycline. Lipofectamine 2000 (Invitrogen) transfection reagent was used to deliver siRNA or together with pTRE2-(CAG)n-eGFP into cells. 100 nM of SUPT4H siRNA (DHARMACON, ON-TARGET plus SMART pool, L-048866-01) and (DHARMACON, J-086342-10, 5′-[…]-3′ (SEQ ID NO: 1) and 5′-[…]-(SEQ ID NO: 2)) were used to knock-down SUPT4H expression in mice and rat cells, respectively.
For mammalian cells, total RNA was isolated using TRIzol reagent as per manufacturer's instruction (Invitrogen). […] The amount of cDNAs were quantified by StepOnePlus Real-Time qPCR system (Applied Biosystems) and analyzed by the Quantitative-Comparative CT (AACT) program. Rat SUPT4H, eGFP, mouse SUPT4H, and Mouse HTT were measured using corresponding primer sets as indicated in TABLE 3. snRNA U6 was included as a loading control. […]
Please refer to FIG. 6. […] A relative high signal of R-loops was detected in (CAG)7-eGFP, but this signal is not increased by tropolone. […] RNA was extracted and analyzed by real-time RT-qPCR to measure the quantity of (CAG)n-GFP, SUPT4H and snRNA U6. […]

Structure (SMILES): O=c1cccccc1O [Tropolone]
- level of transcriptional reduction by SUPT4H siRNA knockdown upon tropolone treatment: further increased
